Legend:
[1] = xn = mol fraction of the nth substance listed; conditions: 101 kPa, Liquid
[2] = excess molar enthalpy (molar enthalpy of mixing); xn = mol fraction of the nth substance listed; conditions: 303.15 K, 101 kPa, Liquid, Calvet calorimetry

CCO [ethanol] + CCCCn1cc[n+](C)c1.F[B-](F)(F)F
[1], x2 = 0
Conditions	mass density [kg/m3]
293.15 K	789.38
303.15 K	780.78
313.15 K	772.04
323.15 K	763.14

C[N+](=O)[O-] [nitromethane] + CCCCn1cc[n+](C)c1.COS(=O)(=O)[O-]
[1], x2 = 0
Conditions	mass density [kg/m3]
293.15 K	1137.92
303.15 K	1124.32
313.15 K	1110.62
323.15 K	1096.82

C[N+](=O)[O-] [nitromethane] + CCCCn1cc[n+](C)c1.F[B-](F)(F)F
mass density [kg/m3], [1]
Conditions	293.15 K	303.15 K	313.15 K	323.15 K
x2 = 0	1137.98	1124.39	1110.68	1096.88
x2 = 0.0512	1154.27	1142.08	1129.84	1117.57
x2 = 0.0991	1164.29	1152.98	1141.66	1130.32
x2 = 0.1392	1170.56	1159.82	1149.08	1138.35
x2 = 0.2026	1178.15	1168.09	1158.06	1148.05
x2 = 0.2986	1186.08	1176.78	1167.52	1158.31
x2 = 0.3565	1189.62	1180.67	1171.76	1162.9
x2 = 0.3972	1191.64	1182.9	1174.2	1165.55
x2 = 0.4553	1194.13	1185.65	1177.21	1168.83
x2 = 0.5231	1196.42	1188.18	1179.99	1171.87
x2 = 0.5949	1198.48	1190.48	1182.53	1174.65
x2 = 0.6863	1200.57	1192.82	1185.11	1177.48
x2 = 0.8073	1202.6	1195.13	1187.69	1180.33
x2 = 0.8634	1203.37	1196.01	1188.69	1181.43

[2]
Conditions	excess molar enthalpy [kcal/mol]
x2 = 0.0016	-0.00167
x2 = 0.0273	-0.022
x2 = 0.0558	-0.0435
x2 = 0.1131	-0.0686
x2 = 0.202	-0.097
x2 = 0.3621	-0.116
x2 = 0.5067	-0.108
x2 = 0.6037	-0.0978
x2 = 0.7226	-0.0755
x2 = 0.8827	-0.038

— the NIST ThermoML archive (doi:10.1021/je700754k)
